Key:
rice [1] = test: Test B pre-/postemergence herbicide test; format: in vivo, Oryza sativa; settings: for Rice plant response rating (0 to 100 scale) / Plant response rating, Rice: preemergence
Procedure, shortened: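 Formulation: non-phytotoxic solvent mix with surfactant. Timing: preemergence on seed and postemergence on 2–18 cm plants, applied concurrently. Readout after 13–15 d greenhouse: visual 0–100 control rating against controls.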

cocklebur = test: Test C pre-/postemergence herbicide test; format: in vivo, Xanthium strumarium; settings: for Cocklebur plant response rating: Preemergence, 500 g ai/ha, scale 0 to 100, 0 no effect, 100 complete control
Procedure, shortened: (§1)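 Pre/post spray; non-phytotoxic solvent + surfactant. Post-timing 1–4 leaves, 2–18 cm. Read-out: visual % control vs untreated, day 12–14, greenhouse.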

lambsquarters = test: Test C pre-/postemergence herbicide test; format: in vivo, Chenopodium album
Procedure, shortened: as §1

yellow nutsedge = test: Test C pre-/postemergence herbicide test; format: in vivo, Cyperus esculentus
Procedure, shortened: as §1

common ragweed = test: Test C pre-/postemergence herbicide test; format: in vivo, Ambrosia elatior; design: key to Plant response rating, Ragweed: 0 = no effect, 100 = complete control
Procedure, shortened: as §1

soybean = test: Test C pre-/postemergence herbicide test; format: in vivo, Glycine max
Procedure, shortened: as §1

[2] = test system: common (oilseed) sunflower; test: Test C pre-/postemergence herbicide test; format: in vivo, Helianthus annuus
Procedure, shortened: as §1

rice [3] = test: Test C flooded paddy test; format: in vivo, Oryza sativa; settings: for Plant response rating, Rice: 500 g ai/ha, visual rating after 12 to 14 days
Procedure, shortened: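 Postemergence sprays applied to plants 2 to 18 cm tall (1- to 4-leaf stage); paddy species grown to 2-leaf stage under flooding. After 12 to 14 days in greenhouse, visual rating versus untreated controls on 0–100 scale (0 no effect, 100 complete control).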

[4] = 125 g ai/ha, 0 = no effect, 100 = complete control
[5] = 500 g ai/ha, visual rating, 0 = no effect, 100 = complete control
[6] = 62 g ai/ha, preemergence, scale 0 to 100
[7] = 125 g ai/ha, scale 0 (no effect) to 100 (complete control), visual, 12 to 14 days, preemergence
[8] = 250 g ai/ha, scale 0-100, preemergence
[9] = 500 g ai/ha, scale 0 to 100 (0 no effect, 100 complete control), visual, 12 to 14 days, preemergence
[10] = 125 g ai/ha, scale 0 to 100 (0 no effect, 100 complete control)
[11] = 250 g ai/ha, scale of 0 to 100, 0 is no effect, 100 is complete control
[12] = scale 0 to 100 (0 no effect, 100 complete control)
[13] = 250 g ai/ha, scale 0 to 100 (0 no effect, 100 complete control), visual, 12 to 14 days, preemergence
[14] = Preemergence, 500 g ai/ha, scale 0 to 100, 0 no effect, 100 complete control

## CCN(C)C(=O)c1ccc(F)c(NC(=O)C2CC(C(C)(C)C)=NN2CC)c1 (racemic) [Compound 307]
Rice [1]; [4]
  Rice plant response rating (0 to 100 scale): 80
Rice [1]; [5]
  Plant response rating, Rice: 90
cocklebur; [6]
  Plant response rating, Cocklebur: 0
cocklebur; [7]
  Plant response rating, Cocklebur: 30
cocklebur; [8]
  Plant response rating, Cocklebur: 35
cocklebur
  Cocklebur plant response rating: 75
lambsquarters; [6]
  Plant response rating, Lambsquarters: 100
lambsquarters; [7]
  Plant response rating, Lambsquarters: 100
lambsquarters; [8]
  Plant response rating, Lambsquarters: 100
lambsquarters; [9]
  Plant response rating, Lambsquarters: 100
Yellow nutsedge; [6]
  Plant response rating, Nutsedge, Yellow: 5
Yellow nutsedge; [7]
  Plant response rating, Nutsedge, Yellow: 20
Yellow nutsedge; [8]
  Plant response rating, Nutsedge, Yellow: 50
Yellow nutsedge; [9]
  Plant response rating, Nutsedge, Yellow: 50
Common ragweed; [6]
  Plant response rating, Ragweed: 80
Common ragweed; [8]
  Plant response rating, Ragweed: 100
Common ragweed; [9]
  Plant response rating, Ragweed: 100
soybean; [6]
  Plant response rating, Soybean: 40
soybean; [8]
  Plant response rating, Soybean: 80
soybean; [9]
  Plant response rating, Soybean: 100
[2]; [6]
  Plant response rating, Sunflower: 0
[2]; [8]
  Plant response rating, Sunflower: 60
[2]; [9]
  Plant response rating, Sunflower: 60
Rice [3]; 62 g ai/ha, scale 0 to 100
  Rice plant response rating: 55
Rice [3]; [10]
  Rice plant response rating: 60
Rice [3]; [11]
  Rice plant response rating: 65
Rice [3]; [12]
  Plant response rating, Rice: 80

## CCN(C)C(=O)c1cccc(NC(=O)c2cc(C(C)(C)C)nn2CC)c1 [Compound 48]
Rice [1]; Preemergence, 500 g ai/ha, scale 0 to 100
  Rice plant response rating: 60
Rice [1]; 125 g ai/ha, 0 to 100 scale, 0 is no effect, 100 is complete control
  Plant response rating, Rice: 10
cocklebur; 62 g ai/ha, preemergence
  Plant response rating (0 = no effect, 100 = complete control), Cocklebur: 0
cocklebur; [7]
  Plant response rating, Cocklebur: 0
cocklebur; [13]
  Plant response rating, Cocklebur: 0
cocklebur
  Cocklebur plant response rating: 10
lambsquarters; 62 g ai/ha, preemergence
  Plant response rating (0 = no effect, 100 = complete control), Lambsquarters: 85
lambsquarters; [7]
  Plant response rating, Lambsquarters: 95
lambsquarters; [13]
  Plant response rating, Lambsquarters: 95
lambsquarters; [14]
  Lambsquarters plant response rating: 95
Yellow nutsedge; 62 g ai/ha, preemergence
  Plant response rating (0 = no effect, 100 = complete control), Nutsedge, Yellow: 0
Yellow nutsedge; [7]
  Plant response rating, Nutsedge, Yellow: 0
Yellow nutsedge; [13]
  Plant response rating, Nutsedge, Yellow: 10
Yellow nutsedge; [14]
  Nutsedge, Yellow plant response rating: 30
Common ragweed; 62 g ai/ha, preemergence
  Plant response rating (0 = no effect, 100 = complete control), Ragweed: 0
Common ragweed; [7]
  Plant response rating, Ragweed: 5
Common ragweed; [13]
  Plant response rating, Ragweed: 70
Common ragweed; [14]
  Ragweed plant response rating: 100
soybean; 62 g ai/ha, preemergence
  Plant response rating (0 = no effect, 100 = complete control), Soybean: 0
soybean; [7]
  Plant response rating, Soybean: 0
soybean; [13]
  Plant response rating, Soybean: 0
soybean; [14]
  Soybean plant response rating: 30
[2]; 62 g ai/ha, preemergence
  Plant response rating (0 = no effect, 100 = complete control), Sunflower: 0
[2]; [7]
  Plant response rating, Sunflower: 0
[2]; [13]
  Plant response rating, Sunflower: 0
[2]; [14]
  Sunflower plant response rating: 0
Rice [3]; 16 g ai/ha, scale 0 to 100
  Rice plant response rating: 0
Rice [3]; 31 g ai/ha, scale 0 to 100
  Rice plant response rating: 0
Rice [3]; 62 g ai/ha, scale 0 to 100 (0 no effect, 100 complete control)
  Rice plant response rating: 0
Rice [3]; 125 g ai/ha, scale of 0 to 100, 0 is no effect, 100 is complete control
  Rice plant response rating: 20

## CCn1nc(C(C)(C)C)cc1C(=O)Nc1cc(C(=S)N(C)C)ccc1F [Compound 294]
Rice [1]; [4]
  Rice plant response rating (0 to 100 scale): 90
Rice [1]; [5]
  Plant response rating, Rice: 100
cocklebur; [6]
  Plant response rating, Cocklebur: 30
cocklebur; [7]
  Plant response rating, Cocklebur: 40
cocklebur; [8]
  Plant response rating, Cocklebur: 80
cocklebur
  Cocklebur plant response rating: 85
lambsquarters; [6]
  Plant response rating, Lambsquarters: 100
lambsquarters; [7]
  Plant response rating, Lambsquarters: 100
lambsquarters; [8]
  Plant response rating, Lambsquarters: 100
lambsquarters; [9]
  Plant response rating, Lambsquarters: 100
Yellow nutsedge; [6]
  Plant response rating, Nutsedge, Yellow: 50
Yellow nutsedge; [7]
  Plant response rating, Nutsedge, Yellow: 55
Yellow nutsedge; [8]
  Plant response rating, Nutsedge, Yellow: 80
Yellow nutsedge; [9]
  Plant response rating, Nutsedge, Yellow: 90
Common ragweed; [6]
  Plant response rating, Ragweed: 100
Common ragweed; [8]
  Plant response rating, Ragweed: 100
Common ragweed; [9]
  Plant response rating, Ragweed: 100
soybean; [6]
  Plant response rating, Soybean: 70
soybean; [8]
  Plant response rating, Soybean: 100
soybean; [9]
  Plant response rating, Soybean: 100
[2]; [6]
  Plant response rating, Sunflower: 30
[2]; [8]
  Plant response rating, Sunflower: 100
[2]; [9]
  Plant response rating, Sunflower: 100
Rice [3]; 62 g ai/ha, scale 0 to 100
  Rice plant response rating: 70
Rice [3]; [10]
  Rice plant response rating: 75
Rice [3]; [11]
  Rice plant response rating: 85
Rice [3]; [12]
  Plant response rating, Rice: 90

## CCn1nc(C(C)(C)C)cc1C(=S)Nc1cc(C(=S)N(C)C)ccc1F [Compound 305]
Rice [1]; [4]
  Rice plant response rating (0 to 100 scale): 70
Rice [1]; [5]
  Plant response rating, Rice: 80
cocklebur; [6]
  Plant response rating, Cocklebur: 10
cocklebur; [7]
  Plant response rating, Cocklebur: 15
cocklebur; [8]
  Plant response rating, Cocklebur: 65
cocklebur
  Cocklebur plant response rating: 90
lambsquarters; [6]
  Plant response rating, Lambsquarters: 100
lambsquarters; [7]
  Plant response rating, Lambsquarters: 100
lambsquarters; [8]
  Plant response rating, Lambsquarters: 100
lambsquarters; [9]
  Plant response rating, Lambsquarters: 100
Yellow nutsedge; [6]
  Plant response rating, Nutsedge, Yellow: 10
Yellow nutsedge; [7]
  Plant response rating, Nutsedge, Yellow: 20
Yellow nutsedge; [8]
  Plant response rating, Nutsedge, Yellow: 25
Yellow nutsedge; [9]
  Plant response rating, Nutsedge, Yellow: 50
Common ragweed; [6]
  Plant response rating, Ragweed: 10
Common ragweed; [8]
  Plant response rating, Ragweed: 85
Common ragweed; [9]
  Plant response rating, Ragweed: 100
soybean; [6]
  Plant response rating, Soybean: 0
soybean; [8]
  Plant response rating, Soybean: 90
soybean; [9]
  Plant response rating, Soybean: 100
[2]; [6]
  Plant response rating, Sunflower: 0
[2]; [8]
  Plant response rating, Sunflower: 0
[2]; [9]
  Plant response rating, Sunflower: 50
Rice [3]; 62 g ai/ha, scale 0 to 100
  Rice plant response rating: 75
Rice [3]; [10]
  Rice plant response rating: 80
Rice [3]; [11]
  Rice plant response rating: 85
Rice [3]; [12]
  Plant response rating, Rice: 85

## CCc1nn(C(C)(C)C)cc1C(=O)Nc1cc(C(=O)N(C)C)ccn1 [Compound 293]
Rice [1]; [4]
  Rice plant response rating (0 to 100 scale): 90
Rice [1]; [5]
  Plant response rating, Rice: 100
cocklebur; [6]
  Plant response rating, Cocklebur: 0
cocklebur; [8]
  Plant response rating, Cocklebur: 20
cocklebur
  Cocklebur plant response rating: 60
lambsquarters; [6]
  Plant response rating, Lambsquarters: 100
lambsquarters; [7]
  Plant response rating, Lambsquarters: 100
lambsquarters; [8]
  Plant response rating, Lambsquarters: 100
lambsquarters; [9]
  Plant response rating, Lambsquarters: 100
Yellow nutsedge; [6]
  Plant response rating, Nutsedge, Yellow: 0
Yellow nutsedge; [7]
  Plant response rating, Nutsedge, Yellow: 0
Yellow nutsedge; [8]
  Plant response rating, Nutsedge, Yellow: 0
Yellow nutsedge; [9]
  Plant response rating, Nutsedge, Yellow: 20
Common ragweed; [6]
  Plant response rating, Ragweed: 85
Common ragweed; [8]
  Plant response rating, Ragweed: 100
Common ragweed; [9]
  Plant response rating, Ragweed: 100
soybean; [6]
  Plant response rating, Soybean: 0
soybean; [8]
  Plant response rating, Soybean: 90
soybean; [9]
  Plant response rating, Soybean: 100
[2]; [6]
  Plant response rating, Sunflower: 10
[2]; [8]
  Plant response rating, Sunflower: 65
Rice [3]; 62 g ai/ha, scale 0 to 100
  Rice plant response rating: 0
Rice [3]; [10]
  Rice plant response rating: 30
Rice [3]; [11]
  Rice plant response rating: 65
Rice [3]; [12]
  Plant response rating, Rice: 80
